Data taken from patent US12275703B2, “Highly purified batches of pharmaceutical grade migalastat and methods of producing the same” (Amicus Therapeutics, Inc., priority 2020, dated 2025).

System: bacterial reverse mutation
Experiment: bacterial reverse mutation (Ames) test
Format: cell-based
Details: for Ames Positive?: bacterial reverse mutation (Ames) test; for Designated Genotoxin?: designation from Derek and Ames outcome
Description: The starting materials, reagents, intermediates, and process impurities generated in the manufacturing process for migalastat hydrochloride were assessed for their potential genotoxicity using in silico (Derek for Windows v13 Lhasa Ltd) screening software. The chemical structures which were DEREK negative were evaluated using Leadscope (Model Applier and Expert Alerts). […] Where possible, the genotoxicity of these materials was then assessed via the use of the bacterial reverse mutation (Ames) test.

SMILES | Ames Positive? | Designated Genotoxin? | further results
CC(C)(C)C(=O)OC[C@@H](N=[N+]=[N-])[C@@H]1O[C@@H](OC(=O)C(C)(C)C)[C@H](OC(=O)C(C)(C)C)[C@H]1OC(=O)C(C)(C)C [5-azido-5-deoxy-1,2,3,6-tetrapivaloyl-D-galactofuranoside] | No | No | –
CC(C)(C)C(=O)OC[C@@H](OS(=O)(=O)C(F)(F)F)[C@@H]1O[C@@H](OC(=O)C(C)(C)C)[C@H](OC(=O)C(C)(C)C)[C@H]1OC(=O)C(C)(C)C [Compound D] | not sufficiently stable for Ames testing | designated as genotoxins | Ames Positive? (listed as drawing 74): Insufficiently stable for Ames test; Designated Genotoxin? (listed as drawing 74): Yes
CC(C)(C)C(=O)OC[C@H](OS(=O)(=O)C(F)(F)F)[C@@H]1O[C@@H](OC(=O)C(C)(C)C)[C@H](OC(=O)C(C)(C)C)[C@H]1OC(=O)C(C)(C)C [Compound F] | not sufficiently stable for Ames testing | designated as genotoxins | Ames Positive? (listed as drawing 75): Insufficiently stable for Ames test; Designated Genotoxin? (listed as drawing 75): Yes
CC(C)(C)C(=O)OC[C@H](N=[N+]=[N-])[C@@H]1O[C@@H](OC(=O)C(C)(C)C)[C@H](OC(=O)C(C)(C)C)[C@H]1OC(=O)C(C)(C)C [Compound N] | No | No | –
[N-]=[N+]=N[C@@H]1CO[C@@](O)(CO)[C@@H](O)[C@H]1O [Compound P] | Ames positive | confirmed as genotoxins | Ames Positive? (listed as drawing 79): Yes; Designated Genotoxin? (listed as drawing 79): Yes
[N-]=[N+]=N[C@H](CO)[C@@H]1O[C@@H](O)[C@H](O)[C@H]1O [Compound Q] | Ames positive | confirmed as genotoxins | Ames Positive? (listed as drawing 78): Yes; Designated Genotoxin? (listed as drawing 78): Yes
Cl.O[C@@H]1[C@H](O)[C@@H](O)CN[C@@H]1CCl [Compound X] | Ames positive | confirmed as genotoxins | Ames Positive? (listed as drawing 80): Yes; Designated Genotoxin? (listed as drawing 80): Yes
CCCl [Ethyl chloride] | Yes | Yes | –
